Among the data in paper PMC6712885, “Improved homology modeling of the human & rat EP4 prostanoid receptors” (BMC Molecular and Cell Biology, 2019) are Ki and EC50 values, retold here.

Assay [1] has as its target T1, hEP4 receptor (Homo sapiens, UniProt P35408). On the set-up: expressed in transfected cells; host or cells: HEK293T/17. Conditions: reported within cited reference; cited from earlier work.
For assay [2], the target named is T1, hEP4 receptor. Put plainly: Radioligand ([H^3]-PGE2) competition binding, hEP4 membranes of HEK293 cells. On the set-up: expressed in transfected cells; host or cells: HEK293. The conditions noted are these: Human EP4 Receptor; displacement of 0.5 nM [H^3]-PGE2, Cheng Prusoff. As to the method:
(§1) Radioligand binding experiments were carried out versus the hEP4 and rEP4 receptors. […] We also implemented the rEP4 receptor binding studies. Equilibrium competition binding assays were conducted to determine the inhibition constants (Ki) for ligand interactions with EP4 receptors sourced from membranes (160,000×g) of HEK293 cells overexpressing recombinant hEP4 or rEP4 receptors. […] Assays were performed in 10 mM 2-(N-morpholino) ethanesulphonic acid (MES) buffer containing 1 mM EDTA and 10 mM MnCl2, pH 6.0, during 120 min at room temperature. Ki was calculated using the Cheng Prusoff equation where Ki = IC50/(1 […] L/Kd).

Assay [3] deals with T1, hEP4 receptor. Kind of assay: cell-based. The class given is cell-based. On the set-up: expressed in transfected cells; host or cells: HEK293T/17. As to the method: (§2) Human and rat EP4 receptors were expressed in HEK293T/17 cells separately by reverse transfection on 96-well plates with optimized amounts of cDNA expression constructs immobilized on the surface. Activation of EP4 receptor in this cell line was measured as an increase in cAMP levels using an ELISA kit (Cayman Chemical, Ann Arbor MI). In short, the transfection plates were seeded with 50,000–80,000 cells/well in reduced serum medium containing 0.5% FBS and incubated overnight at 37 °C with 5% CO2. Before stimulation with test compounds, media was aspirated from the wells and replaced with reduced serum media containing 0.5 mM 3-isobutyl 1-methylxanthine (IBMX). Compound dilution series were prepared in the same IBMX containing media at 2X final concentration and applied to the wells in equal volume. Stimulation media were aspirated from the plates after 30 min incubation with test compounds, and the plates with cells were placed on dry ice and then put into − 80 °C freezer for > 2 h. Cell lysates were prepared on thawed plates by adding 200 μl/well ice-cold ELISA buffer with 0.05% Tween-20 followed by titration. The cell lysates were then transferred to a polypropylene plate and clarified by centrifugation at 1000×g for 15 min at 4 °C. Supernatant was transferred into a pre-coated mouse Anti-Rabbit IgG ELISA plate together with serial dilutions of cAMP for a standard curve in triplicate. cAMP-acetylcholinesterase conjugate (cAMP tracer) was added, followed by cAMP EIA antiserum. Plates were incubated overnight with shaking. After washing 5 times in washing buffer, Ellman’s reagent was added to the well and shake for 90 min under cover before measuring absorbance at 405 nm on a plate reader.

For assay [4], the target named is T2, rEP4 receptor (Rattus norvegicus, UniProt P43114).
T2 construct: expressed in transfected cells; host or cells: HEK293
Kind of assay: Radioligand ([H^3]-PGE2) competition binding, rEP4 membranes of HEK293 cells. The method, then: as §1

The target in assay [5] is T3, Rat EP4 Receptor (Rattus norvegicus, UniProt P43114).
T3 construct: expressed in transfected cells; host or cells: HEK293T/17
Kind of assay: EP4 receptor functional activation, cAMP ELISA in transfected HEK293T/17 cells. In kind it is cell-based. As to the method:
as §2
A general note: ELISA stands for enzyme-linked immunosorbent assay.

In assay [6] the target is T3, Rat EP4 Receptor. On the set-up: method as in PMID 29636218. The conditions noted are these: reported within cited reference; cited from earlier work.
Assay [7] concerns the target T1, hEP4 receptor. On the set-up: expressed in transfected cells; host or cells: HEK293T/17. The conditions noted are these: reported within cited reference; cited from earlier work. The source holds these as a separate data set.
The mark [8] stands for this setting: Rat EP4 Receptor, displacement of 0.5 nM [H^3]-PGE2, Cheng Prusoff, read-out: Ki.
Where [9] appears, read: Human EP4 Receptor, cAMP response assay, value ± spread (n), read-out: EC50.

Molecules are shown by their SMILES. Values joined by “and” are separate entries in the source; they are usually repeats but may differ in a detail not shown here. Equal entries are not always repeated. Where two headings read alike, the source gives them in different places.

T2 sequence (P43114 whole entry): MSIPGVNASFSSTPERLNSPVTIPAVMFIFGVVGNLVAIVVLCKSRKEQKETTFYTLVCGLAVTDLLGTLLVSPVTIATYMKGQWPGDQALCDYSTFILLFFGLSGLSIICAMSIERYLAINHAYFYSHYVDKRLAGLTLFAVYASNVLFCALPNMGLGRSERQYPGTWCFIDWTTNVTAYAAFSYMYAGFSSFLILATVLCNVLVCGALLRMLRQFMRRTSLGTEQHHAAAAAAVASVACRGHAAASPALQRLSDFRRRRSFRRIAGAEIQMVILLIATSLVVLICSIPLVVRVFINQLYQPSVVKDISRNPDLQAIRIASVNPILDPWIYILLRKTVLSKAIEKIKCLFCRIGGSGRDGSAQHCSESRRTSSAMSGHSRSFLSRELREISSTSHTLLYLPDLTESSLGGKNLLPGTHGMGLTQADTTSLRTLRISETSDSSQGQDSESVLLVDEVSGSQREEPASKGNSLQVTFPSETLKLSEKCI
T3 sequence (P43114 whole entry): as above
T1 sequence (P35408 whole entry): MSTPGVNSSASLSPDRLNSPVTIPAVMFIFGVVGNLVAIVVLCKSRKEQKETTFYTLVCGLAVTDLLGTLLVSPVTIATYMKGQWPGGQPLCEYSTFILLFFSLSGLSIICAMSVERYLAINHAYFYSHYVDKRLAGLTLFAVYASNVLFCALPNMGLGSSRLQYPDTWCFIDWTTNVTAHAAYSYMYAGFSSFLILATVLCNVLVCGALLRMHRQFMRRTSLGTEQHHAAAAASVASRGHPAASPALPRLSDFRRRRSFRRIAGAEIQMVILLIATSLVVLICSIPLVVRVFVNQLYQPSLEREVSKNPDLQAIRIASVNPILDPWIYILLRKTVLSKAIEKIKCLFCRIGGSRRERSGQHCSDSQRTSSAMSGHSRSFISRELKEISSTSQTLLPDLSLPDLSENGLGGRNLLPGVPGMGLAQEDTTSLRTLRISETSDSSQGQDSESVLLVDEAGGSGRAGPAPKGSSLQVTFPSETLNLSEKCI

What is called Ki is a dissociation constant, usually derived from enzyme kinetics or from competition with a known ligand. On to `CCOc1c2c(c(OCC)c3ccccc13)C(=O)N(c1ccc(CC(=O)O)cc1)C2` [CCL17464,2], for which, in assay [1], the inhibitory constant (Ki) is 19.9 nM.

By EC50 is commonly meant the concentration that produces a half-maximal response. In the case of `CCCCC[C@H](O)/C=C/[C@H]1[C@H](O)CC(=O)[C@@H]1CCCCCCC(=O)O` [PGE1, Prostaglandin E1], in assay [2], the affinity, expressed as Ki, was 0.13 nM. For the same compound, the EC50 in assay [3] turned out to be 0.42 ± 0.72 nM.

`CCCCC[C@H](O)/C=C/[C@H]1CCC(=O)[C@@H]1C/C=C\CCCC(=O)O` [11-deoxy-PGE2]: the Ki amounted to 0.42 nM in assay [4] (setting [8]) and 0.23 nM in assay [2]. The EC50 in assay [5] came out at 1.32 ± 0.24 nM; in assay [3] (setting [9]), 0.66 ± 0.11 nM.

Take `CCCCC[C@H](O)/C=C/[C@H]1CCC(=O)N1CCCCCCC(=O)O` [8-aza-11-deoxy-PGE1]: the results for the EC50 in assay [5] and in assay [3] (setting [9]) were 2.64 ± 0.62 nM and 1.77 ± 0.32 nM, respectively. In assay [2], the Ki turned out to be 1.7 nM.

Take `CCCCC(C)(O)C/C=C/[C@H]1[C@H](O)CC(=O)[C@@H]1CCCCCCC(=O)OC` (mixture of isomers) [Misoprostol]: the results for the inhibitory constant (Ki) in assay [6] and in assay [7] were 26300 nM and 4340 nM, respectively.

In the case of `CCCCC[C@H](O)/C=C/[C@H]1[C@H](O)CC(=O)[C@@H]1C/C=C\CCCC(=O)O` [PGE2, prostaglandin E2], in assay [4], the inhibition constant Ki is 0.19 nM.

Consider `CCCCCCOc1c2c(c(OCCCCCC)c3ccccc13)C(=O)N(c1ccc(CC(=O)O)cc1)C2` [CCL17464,19], for which, in assay [1], the Ki was over 6310 nM.

In the case of `Cc1cc(Cl)ccc1-c1ccc([C@H](O)/C=C/[C@H]2CCC(=O)N2CCCCCCC(=O)O)cc1` [CAY10684], the Ki came to 0.057 nM in assay [4] (setting [8]) and 0.061 nM in assay [2]. In addition, the EC50 in assay [5] came out at 0.16 ± 0.06 nM; in assay [3] (setting [9]) it was 0.18 ± 0.1 nM.

`CS(=O)(=O)NC(=O)CCC/C=C\C[C@H]1C(=O)C[C@@H](O)[C@@H]1/C=C/[C@@H](O)COc1ccccc1` [Sulprostone]: the Ki was 43600 nM in assay [6] and 3310 nM in assay [7].

Turning to `CCCCC[C@H](O)/C=C/[C@H]1CCC(=O)[C@@H]1CCCCCCC(=O)O` [11-deoxy-PGE1], the Ki in assay [4] (setting [8]) was 0.21 nM; in assay [2] it was 0.13 nM. Moreover, the EC50 in assay [5] worked out at 1.13 ± 0.15 nM; in assay [3] (setting [9]) it was 0.79 ± 0.19 nM.

Consider `COCc1cccc(C[C@H](O)/C=C/[C@H]2[C@H](O)CC(=O)[C@@H]2CCSCCCC(=O)O)c1` [Rivenprost (free Acid)], for which the Ki in assay [4] (setting [8]) turned out to be 0.35 nM; in assay [2], 0.37 nM. The EC50 in assay [5] was 1.16 ± 0.29 nM; in assay [3] (setting [9]), 0.142 nM and 0.14 nM.
